In patent US8835632B2, “Methods to increase the photostability of dyes” (The University of North Carolina at Chapel Hill, priority 2007, dated 2014):

Columns and labels:
[1] = Methylene Blue-sensitized photobleaching (reactivity of the dyes with singlet oxygen); format: physicochemical; conditions: methanol, [dye]=[Methylene Blue]=3.33 μM, filtered light λ>630 nm, 40 min
Protocol: The reactivity of the dyes with singlet oxygen also was examined to confirm that the cyano substituent group affected photobleaching mediated by singlet oxygen. Singlet oxygen was generated using the photosensitizer Methylene Blue (MB), which has a high quantum yield for singlet oxygen production and allows singlet oxygen to be introduced into the system without excitation of the merocyanine dye. See Murov and Carmichael, Handbook of Photochemistry, 2nd ed.; Dekker: New York (1993).
15 mL of a methanol solution containing dye (3.33 μM) and Methylene Blue (3.33 μM) were placed in a 20-mL Borosilicate Glass Scintillation Vial (Fisher Scientific). The vial was illuminated with the light of a 90 W halogen reflector lamp (120 V, 1280 Lumens, 12 Degree Beam Spread). […] The length of the filtering solution was 1.0 cm. The distance between the vial and the lamp was 11.0 cm. A fan (120 V, 150 mm)) was used to cool the vial. At selected time intervals a sample was removed and the sample absorbance spectrum was obtained on a Hewlett-Packard 8453 diode array spectrophotometer (Agilent, Technologies, Inc.). Rate constants of dye photobleaching were obtained from a plot of ln(A) vs. time (see Table 5).
Again, without wishing to be bound to any one particular theory, the greater reactivity of S-SO vs. I-SO toward singlet oxygen can be attributed to the greater electron donating capacity of the benzothiazole moiety relative to the indolenine ring system.

[2] = Absorption and fluorescence spectra, extinction coefficient, fluorescence quantum yield; format: physicochemical; conditions: for Suppression of extinction coefficient by introduction of the cyano-group: in methanol
[3] = Photobleaching under constant illumination from a halogen tungsten lamp filtered through glass; format: physicochemical
From the text: The photostability of dyes can be important for applications in living cells. The mechanism of photobleaching for merocyanines of varying structure has been examined See Toutchkine et al., J. Am. Chem. Soc. 125:4132-4145 (2003). The photostability of the presently disclosed dyes was characterized by exposing them to constant illumination from a halogen tungsten lamp filtered through glass. This broad spectrum light source provided essentially equal intensity throughout the spectral range where the dyes absorb and where they would be irradiated in vivo (about 600 nm to about 650 nm).

[4] = Relative rate of reaction with chemically generated singlet oxygen in DMSO; format: physicochemical; conditions: 2.5 mM, 1O2 from 1,4-dimethylnaphtalene-1,4-endoperoxide
Protocol: The bleaching rates for the dyes differed by two orders of magnitude. The relative rate constants kr (rel) for product formation during reaction with singlet oxygen were measured by comparing the percent conversions for dyes dissolved in DMSO containing a fixed amount of ^1O2 (2.5 mM solutions; ^1O2 generated by decomposition of 1,4-dimethylnaphtalene-1,4-endoperoxide). The rates were generally higher for dyes with a polar ground state (1a, 2a, 2b, 2d) than for the dyes with their ground state at the “cyanine limit” (3, 4). […] Olefins without allylic hydrogens react with singlet oxygen to form dioxetanes. Dioxetanes are unstable and decompose, to form two carbonyl compounds.

[5] = from C6H6 to MeOH; cited from earlier work

CN1/C(=C/C=C/C=C2/C(=O)c3ccccc3S2(=O)=O)C(C)(C)c2ccccc21 [I-SO, (2Z)-2-[(2E,4E)-4-(1,3,3-trimethyl-1,3-dihydro-2H-indol-2-ylidene)but-2-en-1-ylidene]-1-benzothiophen-3(2H)-one 1,1-dioxide, reference compound]
Bleaching on irradiation of Methylene Blue [1]: 27%
Absorbance λmax ([2]; Butanol (BuOH)): 587 nm
Emission λmax ([2]; Butanol (BuOH)): 618 nm
Extinction coefficient ε ([2]; Butanol (BuOH)): 134000
Fluorescence quantum yield Φ ([2]; Butanol (BuOH)): 0.2
Absorption energy Eabs Exp ([2]; C6H6): 2.172 eV
Emission energy Eem Exp ([2]; C6H6): 2.056 eV
Absorption energy Eabs Exp ([2]; MeOH): 2.116 eV
Emission energy Eem Exp ([2]; MeOH): 2.016 eV
Absorbance λmax ([2]; Methanol (MeOH)): 586 nm
Emission λmax ([2]; Methanol (MeOH)): 615 nm
Extinction coefficient ε ([2]; Methanol (MeOH)): 143000
Fluorescence quantum yield Φ ([2]; Methanol (MeOH)): 0.03
Observed absorption (ε) ([2]; Table 10, BuOH): (134000)
Observed absorption λmax ([2]; Table 10, BuOH): 587 nm
Observed absorption (ε) ([2]; Table 10, C6H6): (109000)
Observed absorption λmax ([2]; Table 10, C6H6): 571 nm
Observed absorption (ε) ([2]; Table 10, DMF): (143000)
Observed absorption λmax ([2]; Table 10, DMF): 586 nm
Observed absorption (ε) ([2]; Table 10, MeOH): (143000)
Observed absorption λmax ([2]; Table 10, MeOH): 586 nm
Observed absorption (ε) ([2]; Table 10, OcOH): (125000)
Observed absorption λmax ([2]; Table 10, OcOH): 587 nm
Absorption Exp wavelength ([2]; Table 12, C6H6): 571 nm
Absorption Exp wavelength ([2]; Table 12, MeOH): 586 nm
Observed emission (Φ) ([2]; Table 15, BuOH): 0.54
Observed emission λmax ([2]; Table 15, BuOH): 618 nm
Observed emission (Φ) ([2]; Table 15, C6H6): 0.42
Observed emission λmax ([2]; Table 15, C6H6): 603 nm
Observed emission (Φ) ([2]; Table 15, DMF): 0.97
Observed emission λmax ([2]; Table 15, DMF): 615 nm
Observed emission (Φ) ([2]; Table 15, MeOH): 0.08
Observed emission λmax ([2]; Table 15, MeOH): 615 nm
Observed emission (Φ) ([2]; Table 15, OcOH): 0.98
Observed emission λmax ([2]; Table 15, OcOH): 617 nm
Suppression of extinction coefficient by introduction of the cyano-group [2]: 62%
kph * 10^6 (absolute rate of photobleaching) ([3]; C6H6): 1.11 s^−1
kph(rel) (relative rate of photobleaching) ([3]; C6H6, with respect to standard I-SO in C6H6): 1.00
kph * 10^6 (absolute rate of photobleaching) ([3]; MeOH): 0.53 s^−1
kph(rel) (relative rate of photobleaching) ([3]; MeOH, with respect to standard I-TBA in MeOH): 1.56
kr(rel) (relative rate constants for product formation during reaction with singlet oxygen produced chemically) [4]: 5.24
Absorption wavelength shift [5]: 15 nm
Emission wavelength shift [5]: 12 nm

CN1/C(=C(C#N)/C=C/C=C2/C(=O)c3ccccc3S2(=O)=O)C(C)(C)c2ccccc21 [I-SO-CN, (2Z,3E,5Z)-5-(1,1-dioxido-3-oxo-1-benzothiophen-2(3H)-ylidene)-2-(1,3,3-trimethyl-1,3-dihydro-2H-indol-2-ylidene)pent-3-enenitrile]
Bleaching on irradiation of Methylene Blue [1]: 0%
Absorbance λmax ([2]; Butanol (BuOH)): 527 nm
Emission λmax ([2]; Butanol (BuOH)): 594 nm
Extinction coefficient ε ([2]; Butanol (BuOH)): 56000
Fluorescence quantum yield Φ ([2]; Butanol (BuOH)): 0.04
Absorbance λmax ([2]; Methanol (MeOH)): 528 nm
Emission λmax ([2]; Methanol (MeOH)): 595 nm
Extinction coefficient ε ([2]; Methanol (MeOH)): 55000
Fluorescence quantum yield Φ ([2]; Methanol (MeOH)): 0.03

CCN1/C(=C/C=C/C=C2/C(=O)c3ccccc3S2(=O)=O)Sc2ccccc21 [S-SO, (2Z)-2-[(2E,4Z)-4-(3-ethyl-1,3-benzothiazol-2(3H)-ylidene)but-2-en-1-ylidene]-1-benzothiophen-3(2H)-one 1,1-dioxide, reference compound]
Bleaching on irradiation of Methylene Blue [1]: 43%
Absorbance λmax ([2]; Butanol (BuOH)): 604 nm
Emission λmax ([2]; Butanol (BuOH)): 622 nm
Extinction coefficient ε ([2]; Butanol (BuOH)): 163000
Fluorescence quantum yield Φ ([2]; Butanol (BuOH)): 0.12
Absorbance λmax ([2]; Methanol (MeOH)): 598 nm
Emission λmax ([2]; Methanol (MeOH)): 617 nm
Extinction coefficient ε ([2]; Methanol (MeOH)): 143000
Fluorescence quantum yield Φ ([2]; Methanol (MeOH)): 0.05
Suppression of extinction coefficient by introduction of the cyano-group [2]: 34%

CCN1/C(=C(C#N)/C=C/C=C2/C(=O)c3ccccc3S2(=O)=O)Sc2ccccc21 [S-SO-CN, (2E,3E,5Z)-5-(1,1-dioxido-3-oxo-1-benzothien-2(3H)-ylidene)-2-(3-ethyl-1,3-benzothiazol-2(3H)-ylidene)pent-3-enenitrile]
Bleaching on irradiation of Methylene Blue [1]: no bleaching
Absorbance λmax ([2]; Butanol (BuOH)): 550 nm
Emission λmax ([2]; Butanol (BuOH)): 599 nm
Extinction coefficient ε ([2]; Butanol (BuOH)): 91000
Fluorescence quantum yield Φ ([2]; Butanol (BuOH)): 0.16
Absorbance λmax ([2]; Methanol (MeOH)): 547 nm
Emission λmax ([2]; Methanol (MeOH)): 597 nm
Extinction coefficient ε ([2]; Methanol (MeOH)): 95000
Fluorescence quantum yield Φ ([2]; Methanol (MeOH)): 0.05

CCN1C(=O)\C(=C/C=C/C=C2\Sc3ccccc3N2CC)C(O)N(CC)C1=S (stereo not shown) [S-TBA]
Absorption wavelength shift [5]: 17 nm
Emission wavelength shift [5]: 11 nm
